In patent publication US20250262333A1, “Construct for Transferring Foreign Substance, and Use Thereof” (TOAGOSEI CO., LTD., priority 2022, published 2025):
FAM = 5(6)-carboxyfluorescein (C21H12O7), a fluorescent dye

The substances below were run on HeLa cells (assay: Evaluation of cell membrane penetration by flow cytometry). Details: 10 μM additive, 0.5% DMSO, 20 hours at 37° C., 5% CO2, FAM fluorescence, detector FL2.
Type: cell-based, human
Description: As the eukaryotic cells, HeLa cells (established cell strain derived from a human cervical cancer cell) were used and the cell membrane penetration of the peptides 1 to 6 was analyzed. In Examples 1 to 6, the prepared samples 1 to 6 were used, respectively, and in Example 7, the FAM solution was used.
The HeLa cell was cultured in 10% fetal bovine serum (FBS)-containing Dulbecco's modified Eagle's medium (DMEM (Cat No. 043-30085, manufactured by FUJIFILM Wako Pure Chemical Corporation)), which is a normal culture medium.
The HeLa cell that adhered to a culture plate was cleaned with PBS and then, a 0.25%-trypsin/EDTA solution was added thereto, and incubation was performed for three minutes at 37° C. After the incubation, the aforementioned 10% FBS-containing DMEM was added to deactivate trypsin and then, five-minute centrifugal separation was performed at 150×g to precipitate the cells. After the supernatant generated by the centrifugal separation was removed, the 10% FBS-containing DMEM was added to the precipitate (cell pellet) to prepare a cell suspension of about 2×10^5 cells/mL. The cell suspension was added by 1 mL to a well of a commercially available six-hole (well) plate (manufactured by AGC TECHNO GLASS Co., Ltd.) so as to seed the cell (about 2×10^5 cells/well). In addition, the 2 mM sample solution 1 was diluted with the 10% FBS-containing DMEM to prepare the sample solution 1 in which the concentration of the sample 1 was 20 μM. Then, 1 mL of the 20 μM sample solution 1 was added to the well (that is, so that the concentration of the sample 1 became 10 μM and the DMSO concentration became 0.5% in the culture solution in the well). After that, the cell was incubated for 20 hours at 37° C. under a 5% CO2 condition.
After the 20-hour incubation, the culture supernatant was removed from the well and the cells in the well were cleaned twice with 1 mL of PBS. Next, 200 μL of the 0.25% trypsin/EDTA solution was added to the well and the incubation was performed for three minutes at 37° C. After the incubation, 400 μL of the 10% FBS-containing DMEM was added to the well to deactivate the trypsin. Subsequently, the cell suspension in the well was transferred to a tube and the cells were collected. After that, 600 μL of PBS was added further to the well to clean the well. Then, PBS in the well was transferred to the tube, so that the cells remaining in the well were collected in the tube. This tube was subjected to five-minute centrifugal separation at 4° C. under a condition of 210×g. After the centrifugal separation, the supernatant was removed and the precipitate (cell pellet) was suspended (cleaned) with 1 mL of PBS, which was followed by the centrifugal separation under the same condition as that described above. After this operation was repeated twice, the supernatant was removed and thus, the cells (cell pellet) cultured in a culture medium containing the sample 1 were obtained.
Regarding the obtained cells (cell pellet), the cell membrane penetration of the sample 1 was analyzed using a flow cytometer. As the flow cytometer, On-Chip Flowcytometer (manufactured by On-Chip Biotechnologies Co., LTD.) was used.
For such an analysis, the obtained cell pellet was suspended with 50 μL of PBS. To this suspension, additionally, 50 μL of 2× sample buffer for the flow cytometer was added so as to prepare a cell suspension for analysis.
Using the aforementioned flow cytometer, gating based on forward scatter (FSC) and side scatter (SSC) was performed to set a gate about a cell group to be analyzed, and the fluorescence intensity was measured about the cell group in this gate. Note that the analysis was performed so that the cell group contained at least 10000 or more cells. The fluorescence intensity was measured using a fluorescence detector FL2 of the flow cytometer (optimum detection wavelength around 543 nm) capable of detecting the fluorescence wavelength of FAM. […]
“5 (6)-carboxyfluorescein [Example 7, reference compound]” was tested, and the “MFI (mean fluorescence intensity)” value was 10.5.
“Ac-KSKKYTSWYVALKR-FAM (Ac-KSKKYTSWYVALKR-{FAM}) [Example 3]” was tested, and the “MFI (mean fluorescence intensity)” value was 14.6.
“Ac-KSRKYTSWYVALKR-FAM (Ac-KSRKYTSWYVALKR-{FAM}) [Example 4]” was tested, and the “MFI (mean fluorescence intensity)” value was 13.2.
With “Ac-RSRKYTSWYVALKRWPC-FAM (Ac-RSRKYTSWYVALKRWPC-{FAM}) [Example 1]” the “MFI (mean fluorescence intensity)” value was 50.4.
For Ac-RSRKYTSWYVALKK-FAM [Example 6], the “MFI (mean fluorescence intensity)” value was 11.1.
“Ac-RSKKYTSWYVALKR-FAM (Ac-RSKKYTSWYVALKR-{FAM}) [Example 5]” was tested, and the “MFI (mean fluorescence intensity)” value was 12.8.
In the case of “Ac-RSRKYTSWYVALKR-FAM (Ac-RSRKYTSWYVALKR-{FAM}) [Example 2, reference compound]”, the “MFI (mean fluorescence intensity)” value is reported as 13.4.

Same assay, conditions: 10 μM, 20 hours, compared with Example 2 (construct including the peptide 2)
In the case of “Ac-RSRKYTSWYVALKRWPC-FAM (Ac-RSRKYTSWYVALKRWPC-{FAM}) [Example 1]”, the “cell membrane penetration / value of MFI, comparison in words” value is reported as “remarkably higher”.
